Read-outs that look alike come from different tables or passages of the source.
Experiments:
[1] = tested on: Plasmopara vilicola (the causal agent of grape downy mildew); assay: Test A: grape downy mildew, test suspension sprayed on grape seedlings after inoculation, visual disease rating; format: in vivo; settings: for pest or weed control at 40 ppm: Plasmopara, 144 h, read-out: Percent Disease Control, Test A
Summary of the method: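 Curative spray: spores applied first, plants kept 24 h in saturated air at 20 °C and dried before treatment, then 5 days at 20 °C plus 24 h saturated. Suspension: acetone (3% of volume) in 1:1 acetone/water, 250 ppm Trem 014, sprayed to run-off (200 ppm ≈ 500 g/ha); visual 0–100 control rating.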

[2] = tested on: Phytophthora infestans (the causal agent of tomato late blight); assay: whole plant or invertebrate; format: in vivo; settings: for pest or weed control at 40 ppm: Phytophthora infestans, 144 h, read-out: Percent Disease Control, Test B
[3] = tested on: Phytophthora infestans (the causal agent of tomato late blight); assay: whole plant or invertebrate; format: in vivo; settings: for pest or weed control at 40 ppm: Phytophthora infestans, 96 h, read-out: Percent Disease Control, Test C
[4] = compounds without asterisk (application rate not given), 100 = 100% disease control, 0 = no control relative to the controls

Q: With `Cc1cc(C(F)(F)F)nn1CC(=O)N1CCC(c2nc(C3=NOC(C)(c4ccccc4)C3)cs2)CC1` (centres unmarked) [Compound 15, 1-[4-[4-(4,5-dihydro-5-methyl-5-phenyl-3-isoxazolyl)-2-thiazolyl]-1-piperidinyl]-2-[5-methyl-3-(trifluoromethyl)-1H-pyrazol-1-yl]ethanone] as the compound, how does the melting point read?
A: The melting point was 97 to 100 °C.

Q: Which melting point does the source give for `Cc1cc(C(F)(F)F)nn1CC(=O)N1CCC(c2nc(C3=NOC4c5ccccc5CCC34)cs2)CC1` (centres unmarked) [Compound 16, 2-[5-methyl-3-(trifluoromethyl)-1H-pyrazol-1-yl]-1-[4-[4-(3a,4,5,9b-tetrahydronaphth[2,1-d]isoxazol-3-yl)-2-thiazolyl]-1-piperidinyl]ethanone] here?
A: The melting point was 162 to 165 °C.

Q: Which results are given for `COc1ccc(C2CC(c3csc(C4CCN(C(=O)Cn5nc(C(F)(F)F)cc5C)CC4)n3)=NO2)cc1` (centres unmarked) [Compound 18, 1-[4-[4-[4,5-dihydro-5-(4-methoxyphenyl)-3-isoxazolyl]-2-thiazolyl]-1-piperidinyl]-2-[5-methyl-3-(trifluoromethyl)-1H-pyrazol-1-yl]ethanone]?
A: pest or weed control at 40 ppm ([1]; * tested at 40 ppm): 100%; pest or weed control at 40 ppm [2]: 100%; pest or weed control at 40 ppm [3]: 99%; melting point: 119 to 124 °C

Q: For `CCc1cc(C(F)(F)F)nn1CC(=O)N1CCC(c2nc(C3=NOC(c4ccccc4)C3)cs2)CC1` (centres unmarked) [Compound 19, 1-[4-[4-(4,5-dihydro-5-phenyl-3-isoxazolyl)-2-thiazolyl]-1-piperidinyl]-2-[5-ethyl-3-(trifluoromethyl)-1H-pyrazol-1-yl]ethanone], which pest or weed control at 40 ppm ([1]; * tested at 40 ppm) is on record?
A: Its pest or weed control at 40 ppm is 100%.

Q: And the pest or weed control at 40 ppm [2]?
A: Its pest or weed control at 40 ppm is 100%.

Q: What about the pest or weed control at 40 ppm [3] of the same compound?
A: Its pest or weed control at 40 ppm is 99%.

Q: What about the melting point of the same compound?
A: Its melting point is 128 to 133 °C.

Q: With `O=C(Cn1nc(C(F)(F)F)cc1C(F)(F)F)N1CCC(c2nc(C3=NOC(c4ccccc4)C3)cs2)CC1` (centres unmarked) [Compound 22, 2-[3,5-bis(trifluoromethyl)-1H-pyrazol-1-yl]-1-[4-[4-(4,5-dihydro-5-phenyl-3-isoxazolyl)-2-thiazolyl]-1-piperidinyl]ethanone] as the compound, how does the pest or weed control at 40 ppm ([1]; * tested at 40 ppm) read?
A: Its pest or weed control at 40 ppm is 100%.

Q: What about the pest or weed control at 40 ppm [2] of the same compound?
A: The pest or weed control at 40 ppm was 100%.

Q: And the pest or weed control at 40 ppm [3]?
A: The pest or weed control at 40 ppm was 99%.

Q: What about the melting point of the same compound?
A: The melting point was 130 to 133 °C.

Q: Which “Percent Disease Control, Test A” value ([1]; ** tested at l0 ppm) does the source give for `C[C@]1(c2ccccc2)CC(c2csc(C3CCN(C(=O)Cn4nc(C(F)(F)F)cc4C(F)(F)F)CC3)n2)=NO1` [Compound 260, 2-[3,5-bis(triflyoromethyl)-1H-pyrazol-1-yl]-1-[4-[4-[(5R)-4,5-dihydro-5-methyl-5-phenyl-3-isoxazolyl]-2-thiazolyl]-1-piperidinyl]ethanone] here?
A: Its value is 100%.

Q: And the “Percent Disease Control, Test B” value ([2]; ** tested at l0 ppm)?
A: Its value is 100%.

Q: What about the “Percent Disease Control, Test C” value ([3]; ** tested at l0 ppm) of the same compound?
A: The value was 96%.

Q: For `Cc1cc(C(F)(F)F)nn1CC(=O)N1CCC(c2nc(C3=NOC(Cc4ccccc4S(N)(=O)=O)C3)cs2)CC1` (centres unmarked) [Compound 262], which “Percent Disease Control, Test A” value ([1]; * tested at 40 ppm) is on record?
A: Its value is 79%.

Q: What about the “Percent Disease Control, Test B” value ([2]; * tested at 40 ppm) of the same compound?
A: The value was 100%.

Q: And the “Percent Disease Control, Test C” value ([3]; * tested at 40 ppm)?
A: The value was 91%.

Q: Which “Percent Disease Control, Test A” value ([1]; * tested at 40 ppm) does the source give for `CC(=O)Oc1ccccc1C1CC(c2csc(C3CCN(C(=O)Cn4nc(C(F)(F)F)cc4C)CC3)n2)=NO1` (centres unmarked) [Compound 263] here?
A: Its value is 99%.

Q: And the “Percent Disease Control, Test B” value ([2]; * tested at 40 ppm)?
A: Its value is 84%.

Q: What about the “Percent Disease Control, Test C” value ([3]; * tested at 40 ppm) of the same compound?
A: Its value is 83%.

Q: Which results are given for `Cc1cc(C(F)(F)F)nn1CC(=O)N1CCC(c2nc(C3=NOC(N(C)C(=O)c4ccccc4)C3)cs2)CC1` (centres unmarked) [Compound 264]?
A: Percent Disease Control, Test A ([1]; * tested at 40 ppm): 99%; Percent Disease Control, Test B ([2]; * tested at 40 ppm): 100%; Percent Disease Control, Test C ([3]; * tested at 40 ppm): 88%

Q: For `Cc1cc(C(F)(F)F)nn1CC(=O)N1CCC(c2nc(C3=NOC4(CC(=O)N(C)C4=O)C3)cs2)CC1` (centres unmarked) [Compound 267], which “Percent Disease Control, Test A” value [1, 4] is on record?
A: Its value is 100%.

Q: And the “Percent Disease Control, Test B” value [2, 4]?
A: Its value is 100%.

Q: And the “Percent Disease Control, Test C” value [3, 4]?
A: The value was 100%.

Q: Which “Percent Disease Control, Test A” value [1, 4] does the source give for `CCc1ccc(-c2csc(C3CCN(C(=O)Cn4nc(C(F)(F)F)cc4C)CC3)n2)cc1` [Compound 268] here?
A: The value was 100%.

Q: What about the “Percent Disease Control, Test B” value [2, 4] of the same compound?
A: Its value is 100%.

Q: And the “Percent Disease Control, Test C” value [3, 4]?
A: The value was 88%.

Q: With `Cc1cc(C(F)(F)F)nn1CC(=O)N1CCC(c2nc(-c3ccc(OC(F)(F)F)cc3)cs2)CC1` [Compound 269] as the compound, how does the “Percent Disease Control, Test A” value [1, 4] read?
A: Its value is 100%.

Q: And the “Percent Disease Control, Test B” value [2, 4]?
A: The value was 100%.

Q: And the “Percent Disease Control, Test C” value [3, 4]?
A: Its value is 0%.

Q: With `COC(=O)c1ccc(-c2csc(C3CCN(C(=O)Cn4nc(C(F)(F)F)cc4C)CC3)n2)cc1` [Compound 270] as the compound, how does the “Percent Disease Control, Test A” value [1, 4] read?
A: The value was 99%.

Q: What about the “Percent Disease Control, Test B” value [2, 4] of the same compound?
A: Its value is 83%.

Q: What about the “Percent Disease Control, Test C” value [3, 4] of the same compound?
A: The value was 0%.

Q: For `CCCc1ccc(-c2csc(C3CCN(C(=O)Cn4nc(C(F)(F)F)cc4C)CC3)n2)cc1` [Compound 271], which “Percent Disease Control, Test A” value [1, 4] is on record?
A: The value was 100%.

Q: What about the “Percent Disease Control, Test B” value [2, 4] of the same compound?
A: Its value is 100%.

Q: What about the “Percent Disease Control, Test C” value [3, 4] of the same compound?
A: Its value is 72%.

Q: Which results are given for `CSc1ccc(-c2csc(C3CCN(C(=O)Cn4nc(C(F)(F)F)cc4C)CC3)n2)cc1` [Compound 272]?
A: Percent Disease Control, Test A [1, 4]: 100%; Percent Disease Control, Test B [2, 4]: 100%; Percent Disease Control, Test C [3, 4]: 100%

Q: Which “Percent Disease Control, Test A” value [1, 4] does the source give for `Cc1cc(C(F)(F)F)nn1CC(=O)N1CCC(c2nc(-c3ccc(C(C)C)cc3)cs2)CC1` [Compound 273] here?
A: The value was 100%.

Q: And the “Percent Disease Control, Test B” value [2, 4]?
A: The value was 100%.

Q: And the “Percent Disease Control, Test C” value [3, 4]?
A: The value was 90%.

Q: What does the source list for `Cc1cc(C(F)(F)F)nn1CC(=O)N1CCC(c2nc(-c3ccc(CC(C)C)cc3)cs2)CC1` [Compound 274]?
A: Percent Disease Control, Test A [1, 4]: 99%; Percent Disease Control, Test B [2, 4]: 100%; Percent Disease Control, Test C [3, 4]: 100%

Q: Which “Percent Disease Control, Test A” value ([1]; ** tested at l0 ppm) does the source give for `Cc1cc(C(F)(F)F)nn1CC(=O)N1CCC(c2nc(C3=NOC(n4c(=O)n(C)c5ccccc54)C3)cs2)CC1` (centres unmarked) [Compound 275] here?
A: Its value is 99%.

Q: What about the “Percent Disease Control, Test B” value ([2]; ** tested at l0 ppm) of the same compound?
A: The value was 100%.

Q: And the “Percent Disease Control, Test C” value ([3]; ** tested at l0 ppm)?
A: Its value is 98%.

Q: For `Cc1cc(C(F)(F)F)nn1CC(=O)N1CCC(c2nc(C3=NOC(CN4C(=O)c5ccccc5C4=O)C3)cs2)CC1` (centres unmarked) [Compound 278], which “Percent Disease Control, Test A” value ([1]; * tested at 40 ppm) is on record?
A: The value was 94%.

Q: And the “Percent Disease Control, Test B” value ([2]; * tested at 40 ppm)?
A: The value was 100%.

Q: What about the “Percent Disease Control, Test C” value ([3]; * tested at 40 ppm) of the same compound?
A: The value was 99%.

Q: Which results are given for `Cc1cc(C(F)(F)F)nn1CC(=O)N1CCC(c2nc(C3=NOC(N4C(=O)N(C)C(=O)C(C)(C)C4=O)C3)cs2)CC1` (centres unmarked) [Compound 279]?
A: Percent Disease Control, Test A ([1]; * tested at 40 ppm): 100%; Percent Disease Control, Test B ([2]; * tested at 40 ppm): 100%; Percent Disease Control, Test C ([3]; * tested at 40 ppm): 99%

Q: Which results are given for `Cc1cc(C(F)(F)F)nn1CC(=O)N1CCC(c2nc(C3=NOC(n4c(=O)sc5ccc(Cl)cc54)C3)cs2)CC1` (centres unmarked) [Compound 280]?
A: Percent Disease Control, Test A ([1]; ** tested at l0 ppm): 92%; Percent Disease Control, Test B ([2]; ** tested at l0 ppm): 100%; Percent Disease Control, Test C ([3]; ** tested at l0 ppm): 98%

Reference: US9920030B2 (priority 2006, dated 2018)
